Non-standard residues stand in square brackets, D forms with d. Residues, ends and D or L forms follow the SMILES beside them. *: point of attachment. Tetradecanoyl(3S-OH) = CCCCCCCCCCC[C@H](O)CC(=O)*
Tests used:
[1] = test system: MRSA USA300; assay: Two-dimensional carbenicillin-humimycin A synergy susceptibility assay; assay type: cell-based, Staphylococcus aureus
Experimental: b) Synergy assays. Synergistic β-lactam-humimycin activities were assessed through a two-dimensional (2D) susceptibility assay. Two fold serial dilutions were carried out as described above. Carbenicillin (a β-lactam antibiotic) was diluted serially from left to right, and humimycin was diluted serially from top to bottom. The highest concentration tested for both antibiotics was 32 μg/mL. Fractional inhibitory concentration (FIC) is defined as the ratio of the apparent synergistic MIC divided by the MIC of the antibiotic measured alone.

[2] = test system: MRSA clinical isolates; assay type: cell-based, S. aureus
Experimental: a) Standard assays. Minimal inhibitory concentration (MIC) assays were performed in duplicate in 96-well microtiter plates based on the protocol recommended by Clinical and Laboratory Standards Institute (CLSI, 2012). DMSO stock solutions of syn-BNPs (12.8 mg/mL) were added to the first well in a row and serially diluted (2 fold per transfer) across the microtiter plate. The last well was reserved for a peptide-free control. Overnight cultures of bacteria were diluted 5,000-fold and 50 μL was used as an inoculum in each well. MIC values were determined by visual inspection after 18 h incubation (37° C., static growth).

MICs [2]	MIC ([1]; Staphylococcus aureus, carbenicillin alone)	MIC of carbenicillin in the presence of humimycin A ([1]; in the presence of 2 μg/mL humimycin A (0.25×MIC))	Compound	synergy with carbenicillin in inhibiting growth ([1]; FIC values ≤0.5 defines synergy, n=3)
8 to 128 µg/mL			CCCCCCCCCCC[C@H](O)CC(=O)N[C@@H](Cc1ccc(O)cc1)C(=O)N[C@@H](CO)C(=O)N[C@H](Cc1ccc(O)cc1)C(=O)N[C@@H](Cc1ccccc1)C(=O)N[C@@H](C(=O)N[C@H](C(=O)N[C@H](C(=O)O)C(C)C)C(C)C)[C@H](C)O [Humimycin A] ({Tetradecanoyl(3S-OH)}-YS[dY]F[dT]VV-OH; C-terminus assumed)	act synergistically
	32 µg/mL	1 µg/mL	CC1(C)S[C@@H]2[C@H](NC(=O)C(C(=O)O)c3ccccc3)C(=O)N2[C@H]1C(=O)O (stereo partly shown) [carbenicillin]	
